Measured values taken from patent US20230285570A1, “THERAPEUTICALLY USEFUL CURE-PRO MOLECULES FOR E3 LIGASE MEDIATED DEGRADATION OF PROTEINS, AND METHODS OF MAKING AND USING THEM” (CORNELL UNIVERSITY, priority 2020, published 2023).
“Also recorded” adds a separate entry of the source. One block for each molecule: values may come before it.

Tests used:
Aiolos and Ikaros [1] = test: Aiolos and Ikaros expression in Namalwa cells, Western blot; format: cell-based; conditions: monomer alone, 100 nM-10 μM, 24 h
Method: (§1) Namalwa, Ramosm HeLa, MCF7, or HT29 HCT116 cells (2.5-3×10^6) were treated for 24 hours with the indicated compounds solubilized in DMSO. The cells were washed in ice-cold PBS and were then lysed in RIPA lysis buffer (150 mM NaCl, 5 mM EDTA, 1% NP-40, 0.5% sodium deoxycholate, 0.1% SDS, 50 mM Tris, pH 8.0.) with Roche protease inhibitor complete cocktail and phosphatase inhibitors (10 mM sodium fluoride, 10 mM sodium pyrophosphate, 1 mM sodium orthovanadate and 20 mM β-glycerophosphate). The total protein concentrations were determined by Bradford Protein Assay (Pierce) and 10-20 μg of protein was loaded onto 4-15% Tris-Glycine gradient gels (Biorad). After standard gel electrophoresis, the separated proteins were transferred to PVDF membrane by wet transfer. The immunoblots were then blocked for 1 hour in 5% skim milk in TBST or 5% BSA in TBST, according to manufacturer's instructions, before an overnight incubation at 4° C. with indicated antibodies and membranes. Membranes were then incubated with the appropriate horseradish peroxidase-conjugated secondary antibodies (1:5,000 dilution) for 1 h at room temperature and the bands were visualized using the Clarity Max Western ECL Substrate (Biorad) and the ChemiDoc Imaging System (Biorad). Signal was detected with ECL Western Blotting Substrate (Pierce) and X-ray film processed with a Konica SRX-101 X-ray film processor or captured by Bio-Rad's Chemidoc Imaging system.
(§2) Namalwa (FIG. 78) or Ramos (FIG. 79) cells (5×10^6) were treated for 24 h with the compounds solubilized in DMSO. Compounds were added at 100 nM-10 μM each. Standardized protein samples were electrophoresed and imaged as described in the immunoblotting section above. FIGS. 78 and 79 depict the effects of the E3 ubiquitin ligase CURE-PRO monomer ligands (100 nM-10 μM, 24 h) targeting Cereblon on the expression of Aiolos and Ikaros, two downstream proteins that are known to be ubiquitinated and degraded after IMiDs bind to CRBN.

Aiolos and Ikaros [2] = test: Aiolos and Ikaros expression in Ramos cells, Western blot; format: cell-based; conditions: monomer alone, 100 nM-10 μM, 24 h
Method: as §1, §2

SLC19A1 = test: RT-PCR of c-MYC downstream target gene SLC19A1 in HeLa cells; format: cell-based, Human; conditions: single compound, HeLa, 10 μM, 24 h
Method: The suppression of the expression of the downstream c-MYC target, SLC19A1, was measured by RT-PCR using Power SYBR® Green Cells-to-Ct™ Kit (Life Technologies). Adherent cells were plated on 96 well plates at 5,000 cells per well were treated for 24 h with monomer compounds and compounds capable of reversible interactions (1 nM-100 μM). Cells were subsequently washed in ice-cold PBS processed according to the manufacturer's instructions. Quantitative real-time PCR was performed using a ViiA™ 7 Real-time PCR System (Applied Biosystems, Foster City, Calif., USA). GAPDH and ACTB served as internal controls.
HeLa cells (1×10^4) were treated for 24 hours in 96 well plates with the compounds solubilized in DMSO. Compounds were added at 10 μM each and RNA expression measured by the Cells-to Ct method described above (Thermofisher).

c-MYC [3] = biological target: T1, c-MYC (Homo sapiens, UniProt P01106); test: CURE-PRO-mediated c-MYC degradation in HCT1116 cells, Western blot or WES; format: cell-based; set-up: endogenous in cells; host or cells: HT29
T1 sequence (P01106 whole entry): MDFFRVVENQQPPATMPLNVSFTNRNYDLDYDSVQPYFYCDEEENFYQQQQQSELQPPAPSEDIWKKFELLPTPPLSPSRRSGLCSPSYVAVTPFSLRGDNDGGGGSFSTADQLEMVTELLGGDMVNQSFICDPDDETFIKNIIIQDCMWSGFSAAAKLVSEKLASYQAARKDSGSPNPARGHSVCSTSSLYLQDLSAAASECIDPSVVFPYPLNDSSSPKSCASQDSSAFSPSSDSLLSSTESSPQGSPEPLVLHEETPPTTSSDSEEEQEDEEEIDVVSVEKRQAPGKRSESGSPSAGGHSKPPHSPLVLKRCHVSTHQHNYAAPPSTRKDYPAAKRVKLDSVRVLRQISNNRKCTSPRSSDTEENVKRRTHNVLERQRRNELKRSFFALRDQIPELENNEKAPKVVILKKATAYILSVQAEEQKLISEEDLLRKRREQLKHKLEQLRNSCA
Method: as §1
(§3) WES Simple analysis was performed on WES system (ProteinSimple-Biotechne) according to the manufacturer's instructions. Total protein concentrations of cell lysates were determined by the Pierce BCA kit (Thermo Fisher). 3 μL of 0.3 μg/μL of the protein lysate was loaded onto a 12- to 230-kDa WES assay plate (ProteinSimple) where 300 nL sample was withdrawn through a capillary, subjected to electrophoretic separation of proteins by size, and followed by the simultaneous, HRP-based detection of proteins using the Anti-Rabbit Detection Module (Proteinsimple: #DM-001). The electropherograms were checked then the automatic peak detection was manually corrected if it was required.
HCT1116 cells (2.5×10^6) were treated for 24 h with the compounds solubilized in DMSO. Compounds were added at 10 nM-10 μM each. Standardized protein samples were electrophoresed and imaged as described in the immunoblotting or WES (Proteinsimple) sections above. c-MYC monomers, MYC-N20 (FIG. 100, a 10074-G5 derivative comprising diol linkers), and MYC-N10 (FIG. 101), MYC-N6 (FIG. 102), and MYC-N9 (FIG. 103) (10058-F4 derivatives comprising diol linkers), and MDM2 ligands, 8310 and 8312 (Nutlin 3a derivatives comprising boronic acid linkers) were combined in a 1:1 ratio.
HCT1116 cells (2.5×10^6) were treated for 24 h with the compounds solubilized in DMSO. Compounds were added at 1 μM-10 μM each.

c-MYC [4] = biological target: T1, c-MYC; test: Summary of C-MYC degradation by CURE-PRO pairs, estimated from Western Blot or WES; format: cell-based; set-up: endogenous in cells; host or cells: HT29
Method in brief: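 Degradation read-out from immunoblot with ECL, or WES capillary electrophoresis with HRP detection, of RIPA lysates. Cells (Namalwa, Ramos, HeLa, MCF7, HT29 or HCT116) were exposed to DMSO-solubilized compounds for 24 h; a check mark marks 30% to 70% or higher degradation.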

c-MYC [5] = biological target: T1, c-MYC; test: CURE-PRO-mediated c-MYC degradation in MCF7 cells, WES (ProteinSimple); format: cell-based; set-up: endogenous in cells
Method: as §3
Compounds were added at 1 μM-10 μM each. Standardized protein samples were electrophoresed and imaged as detected on a WES capillary electrophoresis instrument (Proteinsimple), as described above. c-MYC monomers, MYC-N5 (FIG. 94) and MYC-N2 (FIG. 95) (10058-F4 derivatives comprising diol linkers), and VHL ligands, 8297 and 8298 (VH-298 derivatives comprising boronic acid linkers) were combined in a 1:1 ratio.

MV-4-11 cells = test: CellTiter-Glo cell viability, MV-4-11 cells; format: cell-based; conditions: monomer alone, MV-4-11, 24 h, 1 nM-100 μM
Method: CellTiter-Glo® 2.0 Cell Viability Assay (Promega) was carried out following the manufacturer's recommendations. Cells were seeded at a density of 1000 cells/well in a white 96 well plates (Corning, #3917) in a total volume of 100 μl with respective monomers, combinations of BRD ligands together with E3 ligase ligands or vehicle control treatment. After a 72 h incubation, 100 ul of the CellTiter-Glo® substrate was added per well and luminescence was read on a Spectramax M5 (Molecular Devices). Dose-response curves were generated using Graphpad Prism software.
MV-4-11 cells (5×10^4) were treated for 24 hours with the sample compounds solubilized in DMSO. The compounds were added at 1 nM-100 μM each. Cellular viability was determined using the CellTiter-Glo® Luminescent Cell Viability Assay (Promega) described above. FIGS. 19-22 depict the CURE-PRO-mediated loss of cellular viability for BRD monomers (JQ1 derivatives comprising of catechol linkers), and CRBN ligand, 8049 (pomalidomide derivatives comprising boronic acid linkers) combined in a 1:1 ratio.
MV-4-11 cells (1×10^4) were treated for 72 hours with the compounds solubilized in DMSO. Compounds were added at 10 nM-100 μM each. Cellular viability was determined using the CellTiter-Glo® Luminescent Cell Viability Assay (Promega) described above. FIGS. 47-54 depict the CURE-PRO-mediated loss of cellular viability for BRD monomers (JQ1 derivatives comprising of boronic acid linkers), and CRBN ligands, 8046, 8047 and 8066 (pomalidomide derivatives comprising diol linkers) combined in a 1:1 ratio.

[6] = 1:1 with VHL ligand 8297, MCF7, 24 h, 1 μM-10 μM each
[7] = 1:1 with VHL ligand 8298, MCF7, 24 h, 1 μM-10 μM each
[8] = c-MYC monomer alone, MCF7, 24 h, 1 μM-10 μM

Compound: O=C1CCC(N2C(=O)c3cccc(CNC(=O)C4C[C@H]5C[C@@H]4[C@H](O)[C@@H]5O)c3C2=O)C(=O)N1 (stereo in doubt) [compound 8066, (1S,4R,5R,6S)—N-((2-(2,6-dioxopiperidin-3-yl)-1,3-dioxoisoindolin-4-yl)methyl)-5,6-dihydroxybicyclo[2.2.1]heptane-2-carboxamide]
- expression of Aiolos and Ikaros (Aiolos and Ikaros [1]): largely maintain Aiolos and Ikaros expression levels
- expression of Aiolos and Ikaros (Aiolos and Ikaros [2]): largely maintain Aiolos and Ikaros expression levels

Compound: Cc1sc2c(c1C)C(c1ccc(Cl)cc1)=N[C@@H](CC(=O)Nc1ccc(OCCOCCOCCOCCNc3cccc4c3C(=O)N(C3CCC(=O)NC3=O)C4=O)cc1)c1nnc(C)n1-2 (stereo partly shown) [ARV-825, reference compound]
- suppression of SLC19A1 expression (SLC19A1): Complete suppression; also recorded: completely suppressed

- c-MYC degradation (c-MYC [3]; 1:1 with MDM2 ligand 8313, HCT1116, 24 h, 1 μM-10 μM each): had no effect
- c-MYC degradation (c-MYC [3]; monomer dosed alone, HCT1116, 24 h): No loss of c-MYC protein was noted
Compound: CCc1ccc(/C=C2\SC(=O)N(CCOCCNC(=O)c3cccc(B(O)O)c3)C2=O)cc1 [MYC-E4]
- c-MYC degradation (c-MYC [3]; 1:1 with MDM2 ligand 8314, HCT1116, 24 h, 1 μM-10 μM each): caused degradation of c-MYC protein at 10 μM; also recorded: Degradation was noted
- Degradation of C-MYC, combination with CRBN ligand 8047 (c-MYC [4]; Table 7, aryl-boronic acid MYC ligand + 8047): √ (A black check mark indicates efficacy of 30% to 70% or higher protein degradation)
- Degradation of C-MYC, combination with MDM2 ligand 8314 (c-MYC [4]; Table 8, aryl-boronic acid MYC ligand + 8314): √ (A black check mark indicates efficacy of 30% to 70% or higher protein degradation)

- c-MYC degradation (c-MYC [5]; [7]): no loss of c-MYC protein was observed
- c-MYC degradation (c-MYC [5]; [8]): no loss of c-MYC protein was observed
Compound: CCc1ccc(/C=C2\SC(=O)N(Cc3cccc(O)c3O)C2=O)cc1 [MYC-N2]
- c-MYC degradation (c-MYC [5]; [6]): Degradation is observed; also recorded: caused degradation of c-MYC
- Degradation of C-MYC, combination with CRBN ligand 8048 (c-MYC [4]; Table 10, aromatic 1,2-diol MYC ligand + 8048): √ (A black check mark indicates efficacy of 30% to 70% or higher protein degradation)

- c-MYC degradation (c-MYC [5]; [6]): no loss of c-MYC protein was observed
- c-MYC degradation (c-MYC [5]; [8]): no loss of c-MYC protein was observed
Compound: CCc1ccc(/C=C2\SC(=O)N(CCCc3ccc(O)c(O)c3)C2=O)cc1 [MYC-N5]
- c-MYC degradation (c-MYC [5]; [7]): Degradation is observed; also recorded: caused degradation of c-MYC
- Degradation of C-MYC, combination with CRBN ligand 8049 (c-MYC [4]; Table 10, aromatic 1,2-diol MYC ligand + 8049): √ (A black check mark indicates efficacy of 30% to 70% or higher protein degradation)

Compound: Nc1cccc2c1C(=O)N(C1CCC(=O)NC1=O)C2=O (stereo not shown) [Pomalidomide, pomalidomide, reference compound]
- suppression of SLC19A1 expression (SLC19A1): no suppression
- expression of Aiolos and Ikaros (Aiolos and Ikaros [1]): caused greater loss of Aiolos and Ikaros protein than the CURE-PRO derivatives at equimolar concentrations
- expression of Aiolos and Ikaros (Aiolos and Ikaros [2]): caused greater loss of Aiolos and Ikaros protein than the CURE-PRO derivatives at equimolar concentrations

Compound: O=C1CCC(N2C(=O)c3cccc(CNC(=O)c4ccc(O)c(O)c4)c3C2=O)C(=O)N1 (stereo not shown) [compound 8046, N-((2-(2,6-dioxopiperidin-3-yl)-1,3-dioxoisoindolin-4-yl)methyl)-3,4-dihydroxybenzamide]
- expression of Aiolos and Ikaros (Aiolos and Ikaros [1]): largely maintain Aiolos and Ikaros expression levels
- expression of Aiolos and Ikaros (Aiolos and Ikaros [2]): largely maintain Aiolos and Ikaros expression levels

Compound: O=C1CCC(N2C(=O)c3cccc(CNC(=O)c4cccc(O)c4O)c3C2=O)C(=O)N1 (stereo not shown) [compound 8047, N-((2-(2,6-dioxopiperidin-3-yl)-1,3-dioxoisoindolin-4-yl)methyl)-2,3-dihydroxybenzamide]
- expression of Aiolos and Ikaros (Aiolos and Ikaros [1]): largely maintain Aiolos and Ikaros expression levels
- expression of Aiolos and Ikaros (Aiolos and Ikaros [2]): largely maintain Aiolos and Ikaros expression levels

Compound: O=C1CCC(N2C(=O)c3cccc(CNC(=O)c4ccc(B(O)O)cc4)c3C2=O)C(=O)N1 (stereo not shown) [compound 8048]
- expression of Aiolos and Ikaros (Aiolos and Ikaros [1]): largely maintain Aiolos and Ikaros expression levels
- expression of Aiolos and Ikaros (Aiolos and Ikaros [2]): largely maintain Aiolos and Ikaros expression levels

Compound: O=C1CCC(N2C(=O)c3cccc(CNC(=O)c4cccc(B(O)O)c4)c3C2=O)C(=O)N1 (stereo not shown) [compound 8049]
- expression of Aiolos and Ikaros (Aiolos and Ikaros [1]): largely maintain Aiolos and Ikaros expression levels
- loss of cellular viability (MV-4-11 cells): little loss of viability was observed
- expression of Aiolos and Ikaros (Aiolos and Ikaros [2]): largely maintain Aiolos and Ikaros expression levels
